# In the supplement of paper PMC8882468:
# ± gives the standard deviation of the averaged measurements.
# Tested on: HCI-003.E2 (organoid from an ER-positive breast cancer xenograft)
# Test: CTG-3D luminescence at 96 h relative to day-0 seeding control (ratio to day 0); higher = more growth / less cytotoxicity; PDxO 3D drug screen, 96 h, CTG-3D normalised to day-0 seeding control.
# Details: 0.005 µM
row,Structure (SMILES),CTG-3D luminescence at 96 h
1,C[C@H](NC(=O)CCC(F)(F)F)C(=O)N[C@@H]1C(=O)N(CCO)c2ncccc2-c2ccccc21 [crenigacestat],2.11 ± 0.45
2,COc1cccc2c1C(=O)c1c(O)c3c(c(O)c1C2=O)C[C@@](O)(C(=O)CO)C[C@@H]3O[C@H]1C[C@H](N)[C@H](O)[C@H](C)O1 [doxorubicin],2.07 ± 0.47
3,C[C@]12CC[C@@H]3c4ccc(O)cc4C[C@@H](CCCCCCCCC[S+]([O-])CCCC(F)(F)C(F)(F)F)[C@H]3[C@@H]1CC[C@@H]2O (stereo partly specified) [fulvestrant],2.09 ± 0.32
4,Nc1ccn([C@@H]2O[C@H](CO)[C@@H](O)C2(F)F)c(=O)n1 [gemcitabine],1.81 ± 0.36
5,C=CC(=O)N1CCC[C@@H](n2nc(-c3ccc(Oc4ccccc4)cc3)c3c(N)ncnc32)C1 [ibrutinib],2.1 ± 0.51
6,CN(Cc1cnc2nc(N)nc(N)c2n1)c1ccc(C(=O)N[C@@H](CCC(=O)O)C(=O)O)cc1 [methotrexate],2.09 ± 0.46
7,CC1(C)CCC(c2ccc(Cl)cc2)=C(CN2CCN(c3ccc(C(=O)NS(=O)(=O)c4ccc(N[C@H](CCN5CCOCC5)CSc5ccccc5)c(S(=O)(=O)C(F)(F)F)c4)cc3)CC2)C1 [navitoclax],1.64 ± 0.31
8,NC(=O)c1cccc2cn(-c3ccc([C@@H]4CCCNC4)cc3)nc12 [niraparib],1.93 ± 0.43

# Same assay, conditions: 0.1 µM
row,Structure (SMILES),CTG-3D luminescence at 96 h
1,C[C@H](NC(=O)CCC(F)(F)F)C(=O)N[C@@H]1C(=O)N(CCO)c2ncccc2-c2ccccc21 [crenigacestat],2.4 ± 0.31
2,COc1cccc2c1C(=O)c1c(O)c3c(c(O)c1C2=O)C[C@@](O)(C(=O)CO)C[C@@H]3O[C@H]1C[C@H](N)[C@H](O)[C@H](C)O1 [doxorubicin],2.22 ± 0.5
3,C[C@]12CC[C@@H]3c4ccc(O)cc4C[C@@H](CCCCCCCCC[S+]([O-])CCCC(F)(F)C(F)(F)F)[C@H]3[C@@H]1CC[C@@H]2O (stereo partly specified) [fulvestrant],2.42 ± 0.34
4,Nc1ccn([C@@H]2O[C@H](CO)[C@@H](O)C2(F)F)c(=O)n1 [gemcitabine],1.35 ± 0.29
5,C=CC(=O)N1CCC[C@@H](n2nc(-c3ccc(Oc4ccccc4)cc3)c3c(N)ncnc32)C1 [ibrutinib],1.93 ± 0.19
6,CN(Cc1cnc2nc(N)nc(N)c2n1)c1ccc(C(=O)N[C@@H](CCC(=O)O)C(=O)O)cc1 [methotrexate],2.12 ± 0.35
7,CC1(C)CCC(c2ccc(Cl)cc2)=C(CN2CCN(c3ccc(C(=O)NS(=O)(=O)c4ccc(N[C@H](CCN5CCOCC5)CSc5ccccc5)c(S(=O)(=O)C(F)(F)F)c4)cc3)CC2)C1 [navitoclax],2.22 ± 0.47
8,NC(=O)c1cccc2cn(-c3ccc([C@@H]4CCCNC4)cc3)nc12 [niraparib],2.06 ± 0.65

# Same assay, conditions: 1 µM
row,Structure (SMILES),CTG-3D luminescence at 96 h
1,C[C@H](NC(=O)CCC(F)(F)F)C(=O)N[C@@H]1C(=O)N(CCO)c2ncccc2-c2ccccc21 [crenigacestat],2.16 ± 0.72
2,COc1cccc2c1C(=O)c1c(O)c3c(c(O)c1C2=O)C[C@@](O)(C(=O)CO)C[C@@H]3O[C@H]1C[C@H](N)[C@H](O)[C@H](C)O1 [doxorubicin],1.15 ± 0.37
3,C[C@]12CC[C@@H]3c4ccc(O)cc4C[C@@H](CCCCCCCCC[S+]([O-])CCCC(F)(F)C(F)(F)F)[C@H]3[C@@H]1CC[C@@H]2O (stereo partly specified) [fulvestrant],1.9 ± 0.47
4,Nc1ccn([C@@H]2O[C@H](CO)[C@@H](O)C2(F)F)c(=O)n1 [gemcitabine],1.28 ± 0.19
5,C=CC(=O)N1CCC[C@@H](n2nc(-c3ccc(Oc4ccccc4)cc3)c3c(N)ncnc32)C1 [ibrutinib],1.86 ± 0.43
6,CN(Cc1cnc2nc(N)nc(N)c2n1)c1ccc(C(=O)N[C@@H](CCC(=O)O)C(=O)O)cc1 [methotrexate],1.83 ± 0.77
7,CC1(C)CCC(c2ccc(Cl)cc2)=C(CN2CCN(c3ccc(C(=O)NS(=O)(=O)c4ccc(N[C@H](CCN5CCOCC5)CSc5ccccc5)c(S(=O)(=O)C(F)(F)F)c4)cc3)CC2)C1 [navitoclax],1.78 ± 0.67
8,NC(=O)c1cccc2cn(-c3ccc([C@@H]4CCCNC4)cc3)nc12 [niraparib],1.81 ± 0.66

# Same assay, conditions: 10 µM
row,Structure (SMILES),CTG-3D luminescence at 96 h
1,C[C@H](NC(=O)CCC(F)(F)F)C(=O)N[C@@H]1C(=O)N(CCO)c2ncccc2-c2ccccc21 [crenigacestat],2.09 ± 0.67
2,COc1cccc2c1C(=O)c1c(O)c3c(c(O)c1C2=O)C[C@@](O)(C(=O)CO)C[C@@H]3O[C@H]1C[C@H](N)[C@H](O)[C@H](C)O1 [doxorubicin],0.024 ± 0.013
3,C[C@]12CC[C@@H]3c4ccc(O)cc4C[C@@H](CCCCCCCCC[S+]([O-])CCCC(F)(F)C(F)(F)F)[C@H]3[C@@H]1CC[C@@H]2O (stereo partly specified) [fulvestrant],1.54 ± 0.46
4,Nc1ccn([C@@H]2O[C@H](CO)[C@@H](O)C2(F)F)c(=O)n1 [gemcitabine],1.18 ± 0.56
5,C=CC(=O)N1CCC[C@@H](n2nc(-c3ccc(Oc4ccccc4)cc3)c3c(N)ncnc32)C1 [ibrutinib],0.903 ± 0.24
6,CN(Cc1cnc2nc(N)nc(N)c2n1)c1ccc(C(=O)N[C@@H](CCC(=O)O)C(=O)O)cc1 [methotrexate],1.9 ± 0.98
7,CC1(C)CCC(c2ccc(Cl)cc2)=C(CN2CCN(c3ccc(C(=O)NS(=O)(=O)c4ccc(N[C@H](CCN5CCOCC5)CSc5ccccc5)c(S(=O)(=O)C(F)(F)F)c4)cc3)CC2)C1 [navitoclax],1.12 ± 0.62
8,NC(=O)c1cccc2cn(-c3ccc([C@@H]4CCCNC4)cc3)nc12 [niraparib],1.28 ± 0.43

# Same assay, conditions: 100 µM
row,Structure (SMILES),CTG-3D luminescence at 96 h
1,C[C@H](NC(=O)CCC(F)(F)F)C(=O)N[C@@H]1C(=O)N(CCO)c2ncccc2-c2ccccc21 [crenigacestat],1.64 ± 0.37
2,COc1cccc2c1C(=O)c1c(O)c3c(c(O)c1C2=O)C[C@@](O)(C(=O)CO)C[C@@H]3O[C@H]1C[C@H](N)[C@H](O)[C@H](C)O1 [doxorubicin],-0.00504 ± 0.0027
3,C[C@]12CC[C@@H]3c4ccc(O)cc4C[C@@H](CCCCCCCCC[S+]([O-])CCCC(F)(F)C(F)(F)F)[C@H]3[C@@H]1CC[C@@H]2O (stereo partly specified) [fulvestrant],1.41 ± 0.31
4,Nc1ccn([C@@H]2O[C@H](CO)[C@@H](O)C2(F)F)c(=O)n1 [gemcitabine],0.939 ± 0.15
5,C=CC(=O)N1CCC[C@@H](n2nc(-c3ccc(Oc4ccccc4)cc3)c3c(N)ncnc32)C1 [ibrutinib],-0.00322 ± 0.006
6,CN(Cc1cnc2nc(N)nc(N)c2n1)c1ccc(C(=O)N[C@@H](CCC(=O)O)C(=O)O)cc1 [methotrexate],1.64 ± 0.53
7,CC1(C)CCC(c2ccc(Cl)cc2)=C(CN2CCN(c3ccc(C(=O)NS(=O)(=O)c4ccc(N[C@H](CCN5CCOCC5)CSc5ccccc5)c(S(=O)(=O)C(F)(F)F)c4)cc3)CC2)C1 [navitoclax],0.0236 ± 0.0095
8,NC(=O)c1cccc2cn(-c3ccc([C@@H]4CCCNC4)cc3)nc12 [niraparib],-0.000881 ± 0.0012

# Same assay, conditions: 625 fM
row,Structure (SMILES),CTG-3D luminescence at 96 h
1,C[C@H](NC(=O)CCC(F)(F)F)C(=O)N[C@@H]1C(=O)N(CCO)c2ncccc2-c2ccccc21 [crenigacestat],2.07 ± 0.53
2,COc1cccc2c1C(=O)c1c(O)c3c(c(O)c1C2=O)C[C@@](O)(C(=O)CO)C[C@@H]3O[C@H]1C[C@H](N)[C@H](O)[C@H](C)O1 [doxorubicin],2.13 ± 0.45
3,C[C@]12CC[C@@H]3c4ccc(O)cc4C[C@@H](CCCCCCCCC[S+]([O-])CCCC(F)(F)C(F)(F)F)[C@H]3[C@@H]1CC[C@@H]2O (stereo partly specified) [fulvestrant],2.03 ± 0.21
4,Nc1ccn([C@@H]2O[C@H](CO)[C@@H](O)C2(F)F)c(=O)n1 [gemcitabine],2.08 ± 0.36
5,C=CC(=O)N1CCC[C@@H](n2nc(-c3ccc(Oc4ccccc4)cc3)c3c(N)ncnc32)C1 [ibrutinib],2.1 ± 0.31
6,CN(Cc1cnc2nc(N)nc(N)c2n1)c1ccc(C(=O)N[C@@H](CCC(=O)O)C(=O)O)cc1 [methotrexate],2.12 ± 0.37
7,CC1(C)CCC(c2ccc(Cl)cc2)=C(CN2CCN(c3ccc(C(=O)NS(=O)(=O)c4ccc(N[C@H](CCN5CCOCC5)CSc5ccccc5)c(S(=O)(=O)C(F)(F)F)c4)cc3)CC2)C1 [navitoclax],1.76 ± 0.35
8,NC(=O)c1cccc2cn(-c3ccc([C@@H]4CCCNC4)cc3)nc12 [niraparib],1.94 ± 0.36

# Tested on: HCI-005.E2 (organoid from a breast cancer xenograft with a HER2-positive history)
# Test: as above
# Details: 12.5 pM
row,Structure (SMILES),CTG-3D luminescence at 96 h
1,C[C@H](NC(=O)CCC(F)(F)F)C(=O)N[C@@H]1C(=O)N(CCO)c2ncccc2-c2ccccc21 [crenigacestat],1.59 ± 0.68
2,COc1cccc2c1C(=O)c1c(O)c3c(c(O)c1C2=O)C[C@@](O)(C(=O)CO)C[C@@H]3O[C@H]1C[C@H](N)[C@H](O)[C@H](C)O1 [doxorubicin],1.5 ± 0.48
3,C[C@]12CC[C@@H]3c4ccc(O)cc4C[C@@H](CCCCCCCCC[S+]([O-])CCCC(F)(F)C(F)(F)F)[C@H]3[C@@H]1CC[C@@H]2O (stereo partly specified) [fulvestrant],1.53 ± 0.49
4,Nc1ccn([C@@H]2O[C@H](CO)[C@@H](O)C2(F)F)c(=O)n1 [gemcitabine],1.6 ± 0.29
5,C=CC(=O)N1CCC[C@@H](n2nc(-c3ccc(Oc4ccccc4)cc3)c3c(N)ncnc32)C1 [ibrutinib],1.47 ± 0.37
6,CN(Cc1cnc2nc(N)nc(N)c2n1)c1ccc(C(=O)N[C@@H](CCC(=O)O)C(=O)O)cc1 [methotrexate],2.09 ± 0.69
7,CC1(C)CCC(c2ccc(Cl)cc2)=C(CN2CCN(c3ccc(C(=O)NS(=O)(=O)c4ccc(N[C@H](CCN5CCOCC5)CSc5ccccc5)c(S(=O)(=O)C(F)(F)F)c4)cc3)CC2)C1 [navitoclax],1.5 ± 0.29
8,NC(=O)c1cccc2cn(-c3ccc([C@@H]4CCCNC4)cc3)nc12 [niraparib],1.22 ± 0.35
